Data published in PubChem BioAssay AID493092 (Sanford-Burnham Center for Chemical Genomics, 2011).
pIC50: −log10 of the molar value. Activity calls are given as the source filed them.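 Rule for the calls: active = averaged IC50 for reducing per-cell lipid droplet stain intensity under a set limit; inactive = the rest.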

Test system: AML12 mouse hepatocytes, BODIPY lipid droplet imaging
Assay: inhibitors of hepatocyte lipid droplet formation, SAR follow-up, imaging, AML12 mouse hepatocytes, BODIPY staining (AID 493092)
Details: cells fed 100 µM oleate overnight

Row | Compound | IC50 | pIC50
1 | Cc1sc(NC(=O)Cc2ccc3c(c2)OCO3)nc1-c1ccc2c(c1)CCN2C(=O)c1ccccc1F | > 32000 nM (inactive) | 
2 | CCOc1ccc(CCNC(=O)CCc2nnc3ccc(N4CCCCC4)nn23)cc1OCC |  | 6.44
3 | COc1ccc(-c2csc(NC(=O)c3ccc(OCC(=O)N4CCOCC4)c(OC)c3)n2)cc1OC |  | 5.99
4 | COc1cccc(NC(=O)CCC(=O)Nc2cc(OC)c(NC(=O)c3cccs3)cc2OC)c1 |  | 6.71
5 | CCOc1ccc(C(=O)OCC(=O)Nc2cc(C)on2)cc1OCC |  | 6.06
6 | CCCc1cc(N2CCCC2)n2nc(C)c(-c3ccccc3)c2n1 |  | 6.15
7 | CCOc1ccc(C(C)NC(=O)Cc2ccccc2F)cc1OCC (stereo not drawn) |  | 6.08
8 | Cc1cc(N2CCOCC2)n2nc(C)c(-c3ccccc3Cl)c2n1 |  | 6.39
9 | CCOc1ccc(CCNC(=O)c2cc(-c3ccccc3)c(N3CCOCC3)s2)cc1OCC |  | > 7.20
10 | COc1ccc(CCNC(=O)Nc2ccc(C(C)=O)cc2)cc1OC | > 32000 nM (inactive) | 
11 | CC(C)Oc1ccc(C(=O)OC(C)C(=O)Nc2nc(-c3cccc([N+](=O)[O-])c3)cs2)cc1 (stereo not drawn) |  | 6.97
12 | O=C(NCc1ccc2c(c1)OCO2)c1cc(-c2ccccc2)c(N2CCOCC2)s1 |  | 6.39
13 | COc1ccc(C(=O)OCC(=O)NC(C)CCc2ccccc2)c(OC)c1 (stereo not drawn) |  | 6.00
14 | CCOc1ccc(CCNC(=O)COC(=O)c2cc(OC)cc(OC)c2)cc1OCC |  | 6.13
15 | COc1ccc(CCNC(=O)Nc2cc(F)c(F)cc2Cl)cc1OC | > 32000 nM (inactive) | 
16 | CCOc1ccc(CCNC(=O)CN2CCN(Cc3ccccc3C)C2=O)cc1OCC |  | 6.26
17 | COc1cc(NC(=O)c2cccs2)c(OC)cc1NC(=O)CCC(=O)Nc1cccc2ncccc12 |  | 5.35
18 | CCCc1cc(N2CCOCC2)n2ncc(-c3ccccc3)c2n1 |  | 5.60
19 | CCOc1ccc(CCNC(=O)CCC(=O)N2CCOc3ccc(C)cc32)cc1OCC |  | 6.53
20 | CCOc1ccc(CCNC(=O)c2nnc(Cc3ccc(F)cc3)o2)cc1OCC |  | 6.27
21 | O=C(Nc1nc(-c2ccc(-c3ccccc3)cc2)cs1)C1CCCO1 (stereo not drawn) |  | 5.96
22 | COc1cc2c(cc1OC)CN(C(=O)CNC(=O)Cc1cccc3ccccc13)CC2 |  | 6.33
23 | CCOc1ccc(CCNC(=O)CN2C(=O)c3cccnc3Oc3ccc(C)cc32)cc1OCC |  | 6.77
24 | CCOc1ccccc1Nc1nnc(SC(C)C(=O)Nc2nc(-c3ccccc3)cs2)s1 (stereo not drawn) |  | 5.94
25 | CCOc1ccc(CCNC(=O)Nc2ccccc2C)cc1OCC |  | 6.08
26 | COc1cc(NC(=O)c2cccs2)c(OC)cc1NC(=O)CCC(=O)Nc1cc(C)cc(C)c1 |  | 7.06

Row | Compound | IC50 | pIC50
27 | CCOc1ccc(CCNC(=O)Cn2ncn3nc(-c4ccc(OC)cc4)cc3c2=O)cc1OCC |  | 6.92
28 | Cc1cc(N2CCOCC2)n2ncc(-c3ccc(F)cc3)c2n1 |  | 5.67
29 | CN(Cc1ccc2c(c1)OCO2)C(=O)CNC(=O)Cc1cccc2ccccc12 | > 32000 nM (inactive) | 
30 | CCOc1ccc(NC(=O)CCC(=O)Nc2cc(OC)c(NC(=O)c3cccs3)cc2OC)cc1 |  | 6.56
31 | CCOc1ccc(CCNC(=O)COC(=O)c2cc(OC)c(OC)c(OC)c2)cc1OCC |  | 6.99
32 | CC(OC(=O)c1ccc(F)cc1)C(=O)Nc1nc(-c2cccc([N+](=O)[O-])c2)cs1 (stereo not drawn) | > 32000 nM (inactive) | 
33 | COc1ccccc1NS(=O)(=O)c1ccc(NN=Cc2c(C)nn(-c3ccccc3)c2N2CCCC2)c([N+](=O)[O-])c1 |  | 6.05
34 | CCOc1ccc(CCNC(=O)Cn2cccc2C(=O)c2ccccc2)cc1OCC |  | 6.37
35 | CC(OC(=O)c1cccc([N+](=O)[O-])c1)C(=O)Nc1nc(-c2ccccc2)cs1 (stereo not drawn) | > 32000 nM (inactive) | 
36 | CCOc1ccc(CCNC(=O)CCc2nnc3ccc(N4CCCC4)nn23)cc1OCC |  | 6.04
37 | CC(OC(=O)c1ccc(S(=O)(=O)C(F)F)cc1)C(=O)Nc1nc(-c2ccccc2)cs1 (stereo not drawn) | > 32000 nM (inactive) | 
38 | O=C(Cc1cccc2ccccc12)NCC(=O)N1CCc2ccccc2C1 | > 32000 nM (inactive) | 
39 | COc1ccc(CNC(=O)CN2C(=O)NC(C)(c3cccc4ccccc34)C2=O)cc1OC (stereo not drawn) |  | 5.93
40 | CCOc1ccc(CN(C)C(=O)CNC(=O)c2ccc(Br)o2)cc1OC |  | 5.74
41 | Cc1cc(C(=O)OC(C)C(=O)Nc2nc(-c3ccccc3)cs2)c(C)o1 (stereo not drawn) |  | 6.37
42 | O=C(CNC(=O)c1cccc(Br)c1)NCCCc1ccccc1 | > 32000 nM (inactive) | 
43 | Cc1nn2c(N3CCOCC3)c3c(nc2c1-c1ccccc1)CCC3 | 21600 nM (inactive) | 
44 | COc1ccc(C(=O)OC(C)C(=O)NC(C)CCc2ccccc2)cc1[N+](=O)[O-] (stereo not drawn) |  | 6.58
45 | Cc1cc(N2CCOCC2)n2ncc(-c3ccccc3)c2n1 |  | 5.51
46 | Cc1cc(N2CCOCC2)n2nc(C)c(-c3ccc(Cl)cc3)c2n1 |  | 6.80
47 | CCOc1ccc(CCNC(=O)c2cc3sc(Cl)cc3n2C)cc1OCC |  | 7.04
48 | Cc1ccc(-n2nc3c(=O)n(CC(=O)NC(C)CCc4ccccc4)nc(C)c3c2C)cc1 (stereo not drawn) |  | 6.38
49 | CCOc1ccc(CCNC(=O)Cn2cccc2C(=O)c2ccccc2C)cc1OCC |  | 6.48
50 | COc1ccccc1NC(=O)C1CCN(C(=O)NCc2ccccc2)CC1 |  | 5.49
51 | CCOc1ccc(C(=O)NCC(=O)NC(C)CCc2ccccc2)cc1OCC (stereo not drawn) |  | 6.16
52 | CCc1ccccc1NC(=O)CCC(=O)Nc1cc(OC)c(NC(=O)c2cccs2)cc1OC |  | 6.27

Row | Compound | IC50 | pIC50
53 | CCOc1ccccc1NC(=O)CCCNC(=O)Cn1cnc2sc(C)c(C)c2c1=O | 8670 nM (inactive) | 
54 | CCOc1ccc(CCNC(=O)CSc2cc(=O)n(CC)c3ccccc23)cc1OCC |  | 5.90
55 | COc1ccc(CCNC(=O)Nc2ccccc2C#N)cc1OC | > 32000 nM (inactive) | 
56 | COc1cc(OC)cc(C(=O)NCC(=O)NC(C)CCc2ccccc2)c1 (stereo not drawn) | > 32000 nM (inactive) | 
57 | CCOc1ccc(CCNC(=O)CSc2cc(=O)n(C)c3cc(Cl)ccc23)cc1OCC | > 32000 nM (inactive) | 
58 | CC(OC(=O)c1ccc2c(c1)OCO2)C(=O)Nc1nc(-c2cccc([N+](=O)[O-])c2)cs1 (stereo not drawn) | > 32000 nM (inactive) | 
59 | Cc1nn2c(N3CCOCC3)cc(C(C)(C)C)nc2c1-c1ccc(Cl)cc1 | > 32000 nM (inactive) | 
60 | CCOc1ccc(CCNC(=O)CCC(=O)N2CCSc3ccccc32)cc1OCC |  | 7.09
61 | COc1ccc(CN(C)C(=O)CNC(=O)Cc2cccc3ccccc23)c(OC)c1OC |  | 5.63
62 | CC(=O)Nc1ccc(-c2csc(NC(=O)Cc3cccc(F)c3)n2)cc1 |  | 5.57
63 | CC1CC(C)CN(C(=O)c2ccc3c(c2NCCO)C(=O)c2ccccc2C3=O)C1 (stereo not drawn) |  | 6.11
64 | COc1cc(NC(=O)c2cccs2)c(OC)cc1NC(=O)CCC(=O)Nc1cccc2ccccc12 |  | 6.59
65 | CCOc1ccc(CCNC(=O)CSc2cc(=O)n(C)c3ccccc23)cc1OCC |  | 6.30
66 | Cc1ccc(C(=O)NCC(=O)NCCCc2ccccc2)cc1 | > 32000 nM (inactive) | 
67 | COc1ccc(CCNC(=O)Nc2ccccc2Cl)cc1OC | > 32000 nM (inactive) | 
68 | CCOc1ccc(CN(C)C(=O)CNC(=O)Cc2cccc3ccccc23)cc1 |  | 6.77
69 | CCOc1cc2c(cc1OCC)C(c1ccccc1)N(c1ccccc1)C(=O)C2 (stereo not drawn) |  | 6.54
70 | CCCc1ccc(-c2csc(NC(=O)Cc3cccs3)n2)cc1 |  | 6.29
71 | CC(Sc1nnc(Nc2ccccc2)s1)C(=O)Nc1nc(-c2ccccc2)cs1 (stereo not drawn) |  | 5.43
72 | COc1ccc(C)cc1CN(C)C(=O)C(C)NC(=O)Cc1cccc2ccccc12 (stereo not drawn) |  | 5.98
73 | CC(OC(=O)c1ccc(O)cc1)C(=O)Nc1nc(-c2ccccc2)cs1 (stereo not drawn) | > 32000 nM (inactive) | 
74 | COc1ccc(CCNC(=O)Nc2ccccc2C(F)(F)F)cc1OC | > 32000 nM (inactive) | 
75 | COc1ccc(C(=O)OCC(=O)NC(C)CCc2ccccc2)cc1OC (stereo not drawn) | 8730 nM (inactive) | 
76 | CCOc1ccc(C(=O)OC(C)C(=O)Nc2nc(-c3ccc(CC)cc3)cs2)cc1OCC (stereo not drawn) |  | > 7.20
77 | CCOc1ccc(C(=O)OCC(=O)Nc2nc(OC)cc(OC)n2)cc1OCC |  | 6.23
78 | CCOc1ccc(CCNC(=O)CCC(=O)N2CCOc3ccccc32)cc1OCC |  | 6.79

Row | Compound | IC50 | pIC50
79 | Cc1cc(N2CCOCC2)n2nc(C(F)(F)F)c(-c3ccc(Cl)cc3)c2n1 |  | 6.95
80 | COc1cccc(CN(C)C(=O)CNC(=O)Cc2cccc3ccccc23)c1OC | > 32000 nM (inactive) | 
81 | COc1ccc(CN(C)C(=O)CNC(=O)Cc2cccc3ccccc23)c(OC)c1 |  | 5.52
82 | Cc1ccc(-c2c(C)nn3c(N4CCOCC4)cc(C)nc23)cc1 |  | 6.61
83 | O=C(CSCC(=O)N1CCCc2ccccc21)Nc1nc(-c2ccccc2)cs1 | 11800 nM (inactive) | 
84 | COc1ccc(C(=O)OC(C)C(=O)Nc2cc(C(F)(F)F)ccc2Cl)c(OC)c1OC (stereo not drawn) |  | 6.36
85 | Cc1ccc(-c2cnn3c(N4CCOCC4)cc(C)nc23)cc1 | 10600 nM (inactive) | 
86 | Cc1ccccc1C(=O)NCC(=O)NCCC(c1ccccc1)c1ccccc1 | > 32000 nM (inactive) | 
87 | CCOc1cc(CNC(=O)CCCn2c(=O)c3cccn3c3cccnc32)cc(OCC)c1OCC |  | 6.66
88 | COc1ccc(Br)cc1CN(C)C(=O)CNC(=O)Cc1cccc2ccccc12 |  | 5.68
89 | CCOc1ccc(CCNC(=O)CCOc2cc(C)ccc2C)cc1OCC |  | 6.99
90 | Cc1cc(C)n(-c2ccc(C(=O)OC(C)C(=O)Nc3nc(-c4ccccc4)cs3)cc2)n1 (stereo not drawn) | > 32000 nM (inactive) | 
91 | CCOc1ccc(CCNC(=O)Nc2cccc(OC)c2)cc1OCC |  | 6.87
92 | CC1CCCN(C(=O)c2ccc3c(c2NCCO)C(=O)c2ccccc2C3=O)C1 (stereo not drawn) |  | 5.65
93 | COc1ccc(CCNC(=O)Nc2ccc(F)cc2F)cc1OC | > 32000 nM (inactive) | 
94 | Cc1ccc(C(=O)OC(C)C(=O)Nc2nc(-c3cccc([N+](=O)[O-])c3)cs2)cc1 (stereo not drawn) | 17000 nM (inactive) | 
95 | Cc1cc(N2CCOCC2)n2nc(C)c(-c3ccccc3)c2n1 |  | 6.66
96 | CCOc1ccc(CCNC(=O)Nc2ccccc2)cc1OCC |  | 6.59
97 | CCOc1ccccc1C(=O)NCC(=O)NCCCc1ccccc1 | > 32000 nM (inactive) | 
98 | CCc1ccc(NC(=O)CCC(=O)Nc2cc(OC)c(NC(=O)c3cccs3)cc2OC)cc1 |  | 6.47
99 | COc1ccc(-c2csc(NC(=O)c3ccc(OCC(=O)N4CCOCC4)c(OC)c3)n2)cc1 |  | 6.32
100 | CCOC(=O)c1cc(CC)sc1NC(=O)C1CC(=O)NN1Cc1ccccc1 (stereo not drawn) |  | 6.47
101 | CCOc1ccc(CCNC(=O)C2CC=CCC2C(=O)OC(C)C)cc1OCC (stereo not drawn) |  | 6.57
102 | COc1ccc(NC(=O)CCC(=O)Nc2cc(OC)c(NC(=O)c3cccs3)cc2OC)cc1 |  | 6.20
103 | CCOc1ccc(CCNC(=O)Cn2nc(C)c3c(C)n(-c4ccccc4)nc3c2=O)cc1OCC |  | 6.47
